According to patent publication US20250084087A1, “BICYCLIC HETEROCYCLES AS MRGPRX2 ANTAGONISTS” (Incyte Corporation, priority 2023, published 2025):
pIC50: −log10 of the molar value.

Columns and labels:
MRGPRX2 [1] = biological target: T1, MRGPRX2 (Homo sapiens, UniProt Q96LB1); experiment: MRGPRX2 IP1 HTRF assay; type: cell-based; set-up: host or cells: CHO-K1; details: CHO-K1 cells stably expressing human MRGPRX2; IP1 accumulation; agonist Cortistatin 14 1 μM
T1 sequence (Q96LB1 1-330): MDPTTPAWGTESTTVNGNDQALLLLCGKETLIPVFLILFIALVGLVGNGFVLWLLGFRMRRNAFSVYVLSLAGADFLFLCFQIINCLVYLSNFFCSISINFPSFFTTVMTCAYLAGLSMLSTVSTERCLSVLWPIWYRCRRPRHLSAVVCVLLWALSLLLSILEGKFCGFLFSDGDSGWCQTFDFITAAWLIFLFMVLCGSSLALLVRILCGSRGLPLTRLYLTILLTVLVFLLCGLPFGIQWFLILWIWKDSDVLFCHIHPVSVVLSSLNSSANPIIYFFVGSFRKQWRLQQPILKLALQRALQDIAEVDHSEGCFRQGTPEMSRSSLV
Text: Example B: MRGPRX2 IP1 HTRF Assay
This assay measures compound inhibition of myo-Inositol 1 phosphate (IP1) accumulation in CHO-K1 cells. Chinese hamster ovary (CHO-K1) cells stably expressing human MRGPRX2 were purchased from GenScript (Piscataway, NJ).
For the HTRF IP1 determination, an IP-One GqKit (Perkin Elmer Cisbio, Waltham, MA), which includes all reagents and buffers in this protocol, was used. The cells were maintained in culture medium (Ham's F-12K) containing 10% (v/v) FBS, and 200 μg/mL Zeocin. For the assay, the cells were harvested and resuspended in culture medium with 2% FBS and without Zeocin, then were passed through a 40 μm filter. Cells were added at 20000 cells in a 5 μL/well to a 384-well white small volume cell culture plate (Greiner VWR, Radnor, PA) which contained 50 nL/well of test compound serially diluted at a selected concentration range in DMSO. 5 μL/well of prepared 2× Stimulation Buffer2 was then added to plates and was incubated at 37° C. with 5% CO2 for 1 h. 5 μL/well of agonist Cortistatin 14 (Bio-TechneR&D Systems, Minneapolis, MN) in 1× Stimulation Buffer2, for a 1 μM final concentration, was then added to plates and incubated at 37° C. with 5% CO2 for 1 h. 6 μL/well of 1:20 diluted Detection Reagent Mix (d2 and Cryptate) was added to the plates and incubated for 1 h in the dark. Plates were read on the PHERAstar microplate reader (BMG Labtech Cary, NC) to determine the HTRF ratio of the acceptor and donor emission signals. The IP1 concentrations were calculated from a standard curve following the IP-One GQ kit instructions. Wells with DMSO only and wells with high concentration of reference antagonist were used as controls for normalization. Compound IC50 curves were globally fitted with 3- or 4-parameter Hill equation in a Genedata Screener (Genedata Basel, Switzerland).

MRGPRX2 [2] = biological target: T1, MRGPRX2; experiment: MRGPRX2 β-Arrestin recruitment assay (PathHunter); type: cell-based; set-up: host or cells: CHO-K1 (PathHunter); details: PathHunter CHO-K1 MRGPRX2 β-Arrestin cell line; agonist Cortistatin 14 0.25 μM
Text: Example C: MRGPRX2 P-Arrestin Assay
This assay measures compound inhibition of P-Arrestin recruitment, which is part of the G protein-independent pathway that results from the ligand-activated GPCR phosphorylation by specific GPCR kinases. The PathHunter CHO-K1 MRPGRX2 B-Arrestin Cell line stably expressing ProLink tagged MRGPRX2 and Enzyme Acceptor Tagged B-Arrestin was purchased from Eurofins DiscoverX, (Fremont, CA).
The cells were maintained in culture medium from the Europhins DiscoverX Cell Culture Kit-107 which includes FBS, hygromycin B and G418. For the assay, the cells were harvested and were resuspended with Cell Plating Reagent 2 (Eurofins DiscoverX). Cells were added 10000 cells in 25 μL/well to a 384-well black cell culture plate (Greiner VWR, Radnor, PA) which contained 125 nL/well of compound at a selected serially diluted concentration range or DMSO. The plate was incubated at 37° C. with 5% CO2 for 1 h. 2 μL/well of agonist Cortistatin 14 was diluted in Protein Dilution Buffer, (Eurofins DiscoverX) for a final concentration of 0.25 μM, was added and the plate was incubated at 37° C. with 5% CO2 for 90 min. 14 μL/well of Detection Reagent Mix (PathHunter Detection Kit, Eurofins DiscoverX) was added to the plates and further incubated for 1 h in the dark. Plates were read on the PHERAstar microplate reader (BMG Labtech Cary, NC) measuring luminescence 0.1 to 1 second per well. Data was normalized using DMSO only wells and wells with high concentration of reference antagonist as controls. Compound IC50 curves were globally fitted with 3- or 4-parameter Hill equation in a Genedata Screener (Genedata Basel, Switzerland).

SMILES	pIC50 (MRGPRX2 [1])	pIC50 (MRGPRX2 [2])
O=C(N[C@@H]1CC[C@@H](O)C1)N1CC(CNc2cc(C(F)(F)F)nc3cc(C(F)(F)F)nn23)(c2ccc(F)cc2)C1 [Example 53, 3-(((2,5-Bis(trifluoromethyl)pyrazolo[1,5-a]pyrimidin-7-yl)amino)methyl)-3-(4-fluorophenyl)-N-((1R,3R)-3-hydroxycyclopentyl)azetidine-1-carboxamide]	7.00 to 10.00	7.00 to 10.00
O=C(N[C@H]1CC[C@](O)(C(F)(F)F)CC1)N1CC(CNc2cc(C(F)(F)F)nc3cc(C(F)(F)F)nn23)(c2ccc(F)cc2)C1 [Example 54, 3-(((2,5-Bis(trifluoromethyl)pyrazolo[1,5-a]pyrimidin-7-yl)amino)methyl)-3-(4-fluorophenyl)-N-((1s,4s)-4-hydroxy-4-(trifluoromethyl)cyclohexyl)azetidine-1-carboxamide]	7.00 to 10.00	7.00 to 10.00
CC(C)(O)[C@H]1CC[C@H](NC(=O)N2CC(CNc3cc(C(F)(F)F)nc4cc(C(F)(F)F)nn34)(c3ccc(F)cc3)C2)CC1 [Example 55, 3-(((2,5-Bis(trifluoromethyl)pyrazolo[1,5-a]pyrimidin-7-yl)amino)methyl)-3-(4-fluorophenyl)-N-((1r,4r)-4-(2-hydroxypropan-2-yl)cyclohexyl)azetidine-1-carboxamide]	7.00 to 10.00	7.00 to 10.00
O=C(N[C@@H]1CC[C@@H](O)C1)N1CCC(CNc2cc(C(F)(F)F)nc3cc(C(F)(F)F)nn23)(c2ccc(F)cc2)CC1 [Example 56, 4-(((2,5-Bis(trifluoromethyl)pyrazolo[1,5-a]pyrimidin-7-yl)amino)methyl)-4-(4-fluorophenyl)-N-((1R,3R)-3-hydroxycyclopentyl)piperidine-1-carboxamide]	7.00 to 10.00	7.00 to 10.00
N#CC12CC(NC(=O)N3CC(CNc4cc(C(F)(F)F)nc5cc(C(F)(F)F)nn45)(c4cc(F)cc(F)c4)C3)(C1)C2 [Example 65, 3-(((2,5-Bis(trifluoromethyl)pyrazolo[1,5-a]pyrimidin-7-yl)amino)methyl)-N-(3-cyanobicyclo[1.1.1]pentan-1-yl-3-3,5-difluorophenyl)azetidine-1-carboxamide]	7.00 to 10.00	7.00 to 10.00
O=C(N[C@H]1CC[C@H](O)CC1)N1CC(CNc2cc(C3CC3)nc3cc(C(F)(F)F)nn23)(c2ccc(F)cc2)C1 [Example 69, 3-(((5-Cyclopropyl-2-(trifluoromethyl)pyrazolo[1,5-a]pyrimidin-7-yl)amino)methyl)-3-(4-fluorophenyl)-N-((1r,4r)-4-hydroxycyclohexyl)azetidine-1-carboxamide]	7.00 to 10.00	7.00 to 10.00
CCc1cc(NCC2(c3ccc(F)cc3)CN(C(=O)NCC(F)(F)F)C2)n2nc(C(F)(F)F)cc2n1 [Example 71, 3-(((5-Ethyl-2-(trifluoromethyl)pyrazolo[1,5-a]pyrimidin-7-yl)amino)methyl)-3-(4-fluorophenyl)-N-(2,2,2-trifluoroethyl)azetidine-1-carboxamide]	7.00 to 10.00	7.00 to 10.00
CC(C)(O)CNC1CC(CNc2cc(C(F)(F)F)nc3cc(C(F)(F)F)nn23)(c2ccc(F)cc2)C1 (stereo not shown) [Example 73, 1-((3-(((2,5-Bis(trifluoromethyl)pyrazolo[1,5-a]pyrimidin-7-yl)amino)methyl)-3-(4-fluorophenyl)cyclobutyl)amino)-2-methylpropan-2-ol]	7.00 to 10.00	7.00 to 10.00
CC(C)(O)CNC1CCC(CNc2cc(C(F)(F)F)nc3cc(C(F)(F)F)nn23)(c2ccc(F)cc2)CC1 (stereo not shown) [Example 74, 1-((4-(((2,5-Bis(trifluoromethyl)pyrazolo[1,5-a]pyrimidin-7-yl)amino)methyl)-4-(4-fluorophenyl)cyclohexyl)amino)-2-methylpropan-2-ol]	7.00 to 10.00	7.00 to 10.00
Cn1ccc(N2CC(CNc3cc(C(F)(F)F)nc4cc(C(F)(F)F)nn34)(c3ccc(F)cc3)C2)nc1=O [Example 90, 4-(3-(((2,5-Bis(trifluoromethyl)pyrazolo[1,5-a]pyrimidin-7-yl)amino)methyl)-3-(4-fluorophenyl)azetidin-1-yl)-1-methylpyrimidin-2(1H)-one]	7.00 to 10.00	7.00 to 10.00
C[C@]1(O)C[C@H](NC(=O)N2CC(CNc3cc(C(F)(F)F)nc4cc(C(F)(F)F)nn34)(c3ccc(F)cc3)C2)C1 [Example 91, 3-(((2,5-Bis(trifluoromethyl)pyrazolo[1,5-a]pyrimidin-7-yl)amino)methyl)-3-(4-fluorophenyl)-N-((1r,3r)-3-hydroxy-3-methylcyclobutyl)azetidine-1-carboxamide]	7.00 to 10.00	7.00 to 10.00
O=C(NC[C@H]1C[C@H](O)C1)N1CC(CNc2cc(C(F)(F)F)nc3cc(C(F)(F)F)nn23)(c2ccc(F)cc2)C1 [Example 92, 3-(((2,5-Bis(trifluoromethyl)pyrazolo[1,5-a]pyrimidin-7-yl)amino)methyl)-3-(4-fluorophenyl)-N-(((1r,3r)-3-hydroxycyclobutyl)methyl)azetidine-1-carboxamide]	7.00 to 10.00	7.00 to 10.00

More lines, now with the values ahead:

pIC50 (MRGPRX2 [1])	pIC50 (MRGPRX2 [2])	SMILES
7.00 to 10.00	7.00 to 10.00	O=C(N[C@H]1CC[C@@H]1O)N1CC(CNc2cc(C(F)(F)F)nc3cc(C(F)(F)F)nn23)(c2ccc(F)cc2)C1 [Example 93, 3-(((2,5-Bis(trifluoromethyl)pyrazolo[1,5-a]pyrimidin-7-yl)amino)methyl)-3-(4-fluorophenyl)-N-((1S,2S)-2-hydroxycyclobutyl)azetidine-1-carboxamide]
7.00 to 10.00	7.00 to 10.00	O=C(N[C@H]1CC[C@H](O)CC1)N1CC(CNc2cc(C(F)(F)F)nc3cc(C(F)F)nn23)(c2ccc(F)cc2)C1 [Example 98, 3-(((2-(Difluoromethyl)-5-(trifluoromethyl)pyrazolo[1,5-a]pyrimidin-7-yl)amino)methyl)-3-(4-fluorophenyl)-N-((1r,4r)-4-hydroxycyclohexyl)azetidine-1-carboxamide]
7.00 to 10.00	7.00 to 10.00	O=C(N[C@H]1CC[C@H](O)CC1)N1CC(CNc2cc(C(F)(F)F)nc3cc(C(F)(F)F)nn23)(c2ccc(F)cn2)C1 [Example 99, 3-(((2,5-Bis(trifluoromethyl)pyrazolo[1,5-a]pyrimidin-7-yl)amino)methyl)-3-(5-fluoropyridin-2-yl)-N-((1r,4r)-4-hydroxycyclohexyl)azetidine-1-carboxamide]
7.00 to 10.00	7.00 to 10.00	O=C(N[C@H]1CC[C@H](O)CC1)N1CC(CNc2cc(C(F)(F)F)nc3cc(C(F)(F)F)nn23)(c2ccc(F)c(F)c2)C1 [Example 100, 3-(((2,5-Bis(trifluoromethyl)pyrazolo[1,5-a]pyrimidin-7-yl)amino)methyl)-3-(3,4-difluorophenyl)-N-((1r,4r)-4-hydroxycyclohexyl)azetidine-1-carboxamide]
7.00 to 10.00	7.00 to 10.00	[2H]C([2H])([2H])NC(=O)N1CC(CNc2cccc3nc(C(F)(F)F)cn23)(c2ccc(F)cc2)C1 [Example 101, 3-(4-Fluorophenyl)-N-(methyl-d3)-3-(((2-(trifluoromethyl)imidazo[1,2-a]pyridin-5-yl)amino)methyl)azetidine-1-carboxamide]
